# Assay results published in patent US20110105324A1, “Herbicidal Compounds Based on N-Azinyl-N-Phenylsulfonylureas” (BAYER CROPSCIENCE AG, priority 2008, published 2011).
# Tests used:
# Alopecurus myosuroides [1] = assay: Pre-emergence herbicidal activity, greenhouse pot test; format: in vivo; conditions: 80 g/ha, scored visually after approx. 3 weeks, 100% = plants have died, 0% = like control
# Source text: (§1) Seeds of monocotyledonous or dicotyledonous weed plants or crop plants are placed in sandy loam in wood fiber pots and covered with soil. The compounds according to the invention, which are formulated as wettable powders (WP), are then applied to the surface of the soil cover in the form of an aqueous suspension or emulsion with a water application rate of 600 l/ha (converted), with addition of 0.2% wetting agent.
# (§2) After the treatment, the pots are placed in a greenhouse and maintained under good growth conditions for the test plants. After approximately 3 weeks, the activity of the preparations is scored visually in comparison with untreated controls (herbicidal activity in percent (%): 100% activity=the plants have died, 0% activity=like control plants).
# Lolium multiflorum = assay: as above; format: in vivo; conditions: 80 g/ha, scored visually after approx. 3 weeks, 100% = plants have died, 0% = like control
# Source text: as §1, §2
# Abutilon theophrasti = assay: Post-emergence herbicidal activity, greenhouse pot test; format: in vivo; conditions: one-leaf stage, 80 g/ha, scored visually after approx. 3 weeks, 100% = plants have died, 0% = like control
# Experimental: (§3) Seeds of monocotyledonous or dicotyledonous weed plants or crop plants are placed in sandy loam in wood fiber pots, covered with soil and grown in a greenhouse under good growth conditions. 2 to 3 weeks after sowing, the test plants are treated in the one-leaf stage. The compounds according to the invention, which are formulated as wettable powders (WP), are then sprayed onto the green plant parts in the form of an aqueous suspension or emulsion with a water application rate of 600 l/ha (converted) with addition of 0.2% of wetting agent. After the test plants have been left to stand in the greenhouse for approximately 3 weeks under optimal growth conditions, the activity of the preparation is scored visually in comparison with untreated controls (herbicidal activity in percent (%): 100% activity=the plants have died, 0% activity=like control plants).
# Alopecurus myosuroides [2] = assay: as above; format: in vivo; conditions: one-leaf stage, 80 g/ha, scored visually after approx. 3 weeks, 100% = plants have died, 0% = like control
# Experimental: as §3
# Amaranthus retroflexus = assay: as above; format: in vivo; conditions: one-leaf stage, 80 g/ha, scored visually after approx. 3 weeks, 100% = plants have died, 0% = like control
# Experimental: as §3
# Cyperus esculentus [3] = assay: as above; format: in vivo; conditions: one-leaf stage, 80 g/ha, scored visually after approx. 3 weeks, 100% = plants have died, 0% = like control
# Experimental: as §3
# Echinochloa crus-galli = assay: as above; format: in vivo; conditions: one-leaf stage, 80 g/ha, scored visually after approx. 3 weeks, 100% = plants have died, 0% = like control
# Experimental: as §3
# Matricaria inodora [4] = assay: as above; format: in vivo; conditions: one-leaf stage, 80 g/ha, scored visually after approx. 3 weeks, 100% = plants have died, 0% = like control
# Experimental: as §3
# Polygonum convolvulus = assay: as above; format: in vivo; conditions: one-leaf stage, 80 g/ha, scored visually after approx. 3 weeks, 100% = plants have died, 0% = like control
# Experimental: as §3
# Cyperus esculentus [5] = assay: Pre-emergence herbicidal activity, greenhouse pot test; format: in vivo; conditions: 80 g/ha, scored visually after approx. 3 weeks, 100% = plants have died, 0% = like control
# Source text: as §1, §2
# Matricaria inodora [6] = assay: as above; format: in vivo; conditions: 80 g/ha, scored visually after approx. 3 weeks, 100% = plants have died, 0% = like control
# Source text: as §1, §2
# Stellaria media = assay: as above; format: in vivo; conditions: 80 g/ha, scored visually after approx. 3 weeks, 100% = plants have died, 0% = like control
# Source text: as §1, §2
# Veronica persica = assay: as above; format: in vivo; conditions: 80 g/ha, scored visually after approx. 3 weeks, 100% = plants have died, 0% = like control
# Source text: as §1, §2
# Viola tricolor [7] = assay: as above; format: in vivo; conditions: 80 g/ha, scored visually after approx. 3 weeks, 100% = plants have died, 0% = like control
# Source text: as §1, §2
# Pharbitis purpurea [8] = assay: as above; format: in vivo, Pharbitis/Ipomoea purpurea; conditions: 80 g/ha, scored visually after approx. 3 weeks, 100% = plants have died, 0% = like control
# Source text: as §1, §2
# Pharbitis purpurea [9] = assay: Post-emergence herbicidal activity, greenhouse pot test; format: in vivo, Pharbitis (Ipomoea) purpurea; conditions: one-leaf stage, 80 g/ha, scored visually after approx. 3 weeks, 100% = plants have died, 0% = like control
# Experimental: as §3
# Viola tricolor [10] = assay: as above; format: in vivo; conditions: one-leaf stage, 80 g/ha, scored visually after approx. 3 weeks, 100% = plants have died, 0% = like control
# Experimental: as §3
Compound,herbicidal activity ALOMY (Alopecurus myosuroides [1]),herbicidal activity LOLMU (Lolium multiflorum),herbicidal activity ABUTH (Abutilon theophrasti),herbicidal activity ALOMY (Alopecurus myosuroides [2]),herbicidal activity AMARE (Amaranthus retroflexus),herbicidal activity CYPES (Cyperus esculentus [3]),herbicidal activity ECHCG (Echinochloa crus-galli),herbicidal activity MATIN (Matricaria inodora [4]),herbicidal activity POLCO (Polygonum convolvulus),herbicidal activity CYPES (Cyperus esculentus [5]),herbicidal activity MATIN (Matricaria inodora [6]),herbicidal activity STEME (Stellaria media),herbicidal activity VERPE (Veronica persica),herbicidal activity VIOTR (Viola tricolor [7]),herbicidal activity PHBPU (Pharbitis purpurea [8]),herbicidal activity PHBPU (Pharbitis purpurea [9]),herbicidal activity VIOTR (Viola tricolor [10])
"Cc1cc(C)nc(NC(=O)NS(=O)(=O)c2ccccc2OC(C)C(F)(F)F)n1 (stereo not shown) [Compound I-1, N-[(4,6-Dimethylpyrimidin-2-yl)carbamoyl]-2-(2,2,2-trifluoro-1-methylethoxy)-benzenesulfonamide]",80%,80%,90%,90%,80%,80%,80%,80%,90%,,,,,,,,
COc1cc(C)nc(NC(=O)NS(=O)(=O)c2ccccc2OC(C)C(F)(F)F)n1 (stereo not shown) [Compound I-2],90%,90%,90%,90%,,80%,80%,80%,90%,100%,80%,80%,80%,80%,80%,80%,90%
COc1cc(Cl)nc(NC(=O)NS(=O)(=O)c2ccccc2OC(C)C(F)(F)F)n1 (stereo not shown) [Compound I-3],80%,80%,90%,80%,,80%,,90%,80%,100%,80%,,80%,,80%,90%,80%
COc1cc(OC)nc(NC(=O)NS(=O)(=O)c2ccccc2OC(C)C(F)(F)F)n1 (stereo not shown) [Compound I-4],80%,80%,100%,90%,,80%,80%,90%,80%,90%,80%,,80%,80%,80%,80%,90%
"COc1nc(C)nc(NC(=O)NS(=O)(=O)c2ccccc2OC(C)C(F)(F)F)n1 (stereo not shown) [Compound I-5, N-[(4-Methoxy-6-methyl-1,3,5-triazin-2-yl)carbamoyl]-2-(2,2,2-trifluoro-1-methylethoxy)benzenesulfonamide]",90%,,90%,90%,100%,,,90%,90%,,80%,80%,90%,80%,80%,90%,90%
COc1nc(NC(=O)NS(=O)(=O)c2ccccc2OC(C)C(F)(F)F)nc(OC)n1 (stereo not shown) [Compound I-6],80%,,90%,,80%,,,90%,90%,100%,80%,80%,80%,80%,80%,90%,90%
